Results published in patent US7972611B2, “Fungus-induced inflammation and eosinophil degranulation” (Mayo Foundation for Medical Education and Research, priority 2005, dated 2011).
Where two headings read alike, the source gives them in different places. Starred links: 1 amine or outer side, 2 acyl side, 3 side chain; linkers in the order of their positions; H or OH if unused. Residues, ends and D or L forms follow the SMILES beside them. CO = O=C([*:1])[*:2]

Experiments:
eosinophils = assay type: cell-based, human
Description: FIG. 9. […] Alternaria extract, trypsin, or PMA was pretreated with pepstatin A agarose, control agarose, or APMSF, and added to the PAR-2 peptide substrate (Panel A) or eosinophils (Panel B).
(§1) To monitor eosinophil function in response to extracts from Alternaria, degranulation of human eosinophils was measured by quantitating released eosinophil-derived neurotoxin (EDN) and/or MBP. In brief, freshly isolated eosinophils were suspended in HBSS with 25 mM HEPES and 0.01% gelatin at 5×10^5 cells/mL. Eosinophils and stimuli were incubated in 96-well tissue culture plates for 3 hours at 37° C. and 5% CO^2. Cell-free supernatants were stored at −20° C. A specific RIA quantitated eosinophil degranulation by measuring the concentration of EDN in the supernatants.

human eosinophils = experiment: Eosinophil degranulation (EDN release) and activation by fungal extracts and proteins; assay type: cell-based; conditions: for activation of human eosinophils by proteases: through PAR-2
Description: FIG. 5. Effects of fungi on eosinophil degranulation. Eosinophils were incubated with culture extracts of various fungi for 3 hours.
FIG. 21. Effects of Trichoderma xylanase on eosinophil degranulation (Panel A). Effects of Trichoderma xylanase on IL-5 production in mouse airways (Panel B). Panel A: Eosinophils were incubated with various concentrations of Trichoderma xylanase for 3 hours. EDN concentrations in the supernatants were measured by RIA as an indicator of degranulation. Panel B: Naive BALB/c mice were exposed intranasally to various doses of Trichoderma xylanase. After 12 hours, BAL fluids were collected and the concentrations of IL-5 were measured by ELISA. Mean±range, n=2.
FIG. 25. Partial characterization of Alternaria extract. A, Before incubation with eosinophils, aliquots of 100 μg/mL Alternaria and 10 ng/mL IL-5 were heated at 37, 56, or 100° C. for 30 min or were treated at 4° C. for 30 min. Eosinophils were incubated in duplicate with these treated stimuli for 3 hours at 37° C. […] The molecular weight calibration of the column is shown above the elution profile.
The following was performed to determine whether human eosinophils have an innate capacity to respond to environmental fungal organisms. Human eosinophils were incubated with extracts from common environmental airborne fungi.
as §1

C=CC[C@@H]1/C=C(\C)C[C@H](C)C[C@H](OC)[C@H]2O[C@@](O)(C(=O)C(=O)N3CCCC[C@H]3C(=O)O[C@H](/C(C)=C/[C@@H]3CC[C@@H](O)[C@H](OC)C3)[C@H](C)[C@@H](O)CC1=O)[C@H](C)C[C@@H]2OC [FK 506]
eosinophil degranulation (EDN release) induced by Alternaria extract (eosinophils; 3 hours at 37° C.): did not inhibit

CCCCCCCCCCCCCCCCCCNC(=O)OCC(COC(=O)N(Cc1cccc[n+]1CC)C(C)=O)OC (stereo not shown) [CV6209]
eosinophil degranulation (EDN release) induced by Alternaria extract (eosinophils; 3 hours at 37° C.): inhibited

CC(C)C[C@H](NC(=O)[C@H]1O[C@@H]1C(=O)O)C(=O)NCCCCN=C(N)N [E64]
eosinophil degranulation (EDN release) induced by Alternaria extract (eosinophils; 3 hours at 37° C.): did not inhibit

CCN(CC)CCCC(C)Nc1ccnc2cc(Cl)ccc12 (stereo not shown) [Chloroquine]
eosinophil degranulation (EDN release) induced by Alternaria extract (eosinophils; 3 hours at 37° C.): did not inhibit

IL-5: cytokine
loss of activity to induce EDN release after treatment (human eosinophils; treatment at 56° C. or lower temperatures): not | activity to induce EDN release after heat treatment (human eosinophils; treatment at 100° C.): abolished

CC(=O)N[C@@H](CC(C)C)C(=O)N[C@@H](CC(C)C)C(=O)N[C@H](C=O)CCCNC(=N)N [Leupeptin]
eosinophil degranulation (EDN release) induced by Alternaria extract (eosinophils; 3 hours at 37° C.): did not inhibit

Cc1ccc(S(=O)(=O)N[C@@H](CCCCN)C(=O)CCl)cc1 [TLCK]
eosinophil degranulation (EDN release) induced by Alternaria extract (eosinophils; 3 hours at 37° C.): did not inhibit

heparin
eosinophil degranulation (EDN release) induced by Alternaria extract (eosinophils; 3 hours at 37° C.): inhibited

C=C1[C@@H](C)[C@H]2[C@H](Cc3ccccc3)NC(=O)[C@]23OC(=O)/C=C/[C@H](O)CCC[C@@H](C)C/C=C/[C@H]3[C@@H]1O [Cytochalasin B]
eosinophil degranulation (EDN release) induced by Alternaria extract (eosinophils; 3 hours at 37° C.): did not inhibit

CC(C)[C@H](NC(=O)[C@H](CCCNC(=N)N)NC(=O)N[C@@H](Cc1ccccc1)C(=O)O)C(=O)N[C@H](C=O)CCCNC(=N)N [Antipain] ({Phe-CO}-Arg-Val-Arg-aldehyde)
eosinophil degranulation (EDN release) induced by Alternaria extract (eosinophils; 3 hours at 37° C.): did not inhibit

NCCCCCCNS(=O)(=O)c1cccc2c(Cl)cccc12 [W-7]
eosinophil degranulation (EDN release) induced by Alternaria extract (eosinophils; 3 hours at 37° C.): did not inhibit

CC(C)C[C@H](NC(=O)[C@@H](NC(=O)N[C@@H](Cc1ccccc1)C(=O)O)[C@@H]1CCN=C(N)N1)C(=O)N[C@H](C=O)Cc1ccccc1 [Chymostatin]
eosinophil degranulation (EDN release) induced by Alternaria extract (eosinophils; 3 hours at 37° C.): did not inhibit

CC(C)C[C@H](NC(=O)[C@@H](O)[C@H](N)Cc1ccccc1)C(=O)O [Bestatin]
eosinophil degranulation (EDN release) induced by Alternaria extract (eosinophils; 3 hours at 37° C.): did not inhibit

Jasplakinlide
eosinophil degranulation (EDN release) induced by Alternaria extract (eosinophils; 3 hours at 37° C.): inhibited

CC(C)C[C@H](NP(=O)(O)O[C@@H]1O[C@@H](C)[C@H](O)[C@@H](O)[C@H]1O)C(=O)N[C@@H](Cc1c[nH]c2ccccc12)C(=O)O [Phosphoramidon]
eosinophil degranulation (EDN release) induced by Alternaria extract (eosinophils; 3 hours at 37° C.): did not inhibit

COc1cc2c(c(OC)c1OC)-c1ccc(OC)c(=O)cc1[C@@H](NC(C)=O)CC2 [Colchitin]
eosinophil degranulation (EDN release) induced by Alternaria extract (eosinophils; 3 hours at 37° C.): did not inhibit

O=C(O)CN(CCOCCOCCN(CC(=O)O)CC(=O)O)CC(=O)O [EGTA]
eosinophil degranulation (EDN release) induced by Alternaria extract (eosinophils; 3 hours at 37° C.): inhibited

pertussis toxin
Alternaria-induced eosinophil [Ca2+]i response and degranulation, sensitivity to pertussis toxin (eosinophils): sensitive

[La] [Lanthunum]
eosinophil degranulation (EDN release) induced by Alternaria extract (eosinophils; 3 hours at 37° C.): inhibited

CN(C)CCCn1cc(C2=C(c3c[nH]c4ccccc34)C(=O)NC2=O)c2ccccc21 [GF109203X]
eosinophil degranulation (EDN release) induced by Alternaria extract (eosinophils; 3 hours at 37° C.): did not inhibit

Aprotinin
eosinophil degranulation (EDN release) induced by Alternaria extract (eosinophils; 3 hours at 37° C.): did not inhibit

COC[C@H]1OC(=O)c2coc3c2[C@@]1(C)C1=C(C3=O)[C@@H]2CCC(=O)[C@@]2(C)C[C@H]1OC(C)=O [Wortmannin]
eosinophil degranulation (EDN release) induced by Alternaria extract (eosinophils; 3 hours at 37° C.): did not inhibit

O=c1c(-c2ccc(O)cc2)coc2cc(O)cc(O)c12 [Genistein]
eosinophil degranulation (EDN release) induced by Alternaria extract (eosinophils; 3 hours at 37° C.): did not inhibit

C[S+]([O-])c1ccc(-c2nc(-c3ccncc3)c(-c3ccc(F)cc3)[nH]2)cc1 (stereo not shown) [SB203580]
eosinophil degranulation (EDN release) induced by Alternaria extract (eosinophils; 3 hours at 37° C.): did not inhibit

Cn1cc(C2=C(c3cn(CCCSC(=N)N)c4ccccc34)C(=O)NC2=O)c2ccccc21 [Ro-31-8220]
eosinophil degranulation (EDN release) induced by Alternaria extract (eosinophils; 3 hours at 37° C.): did not inhibit

Cl.NCCc1ccc(S(=O)(=O)F)cc1 [Pefabloc SC]
eosinophil degranulation (EDN release) induced by Alternaria extract (eosinophils; 3 hours at 37° C.): did not inhibit

CC(=O)c1c(O)c(C)c(O)c(Cc2c(O)c3c(c(C(=O)/C=C/c4ccccc4)c2O)OC(C)(C)C=C3)c1O [Rottelrin]
eosinophil degranulation (EDN release) induced by Alternaria extract (eosinophils; 3 hours at 37° C.): did not inhibit

COc1cccc(-c2cc(=O)c3ccccc3o2)c1N [PD98059]
eosinophil degranulation (EDN release) induced by Alternaria extract (eosinophils; 3 hours at 37° C.): did not inhibit

O=C(O)CN(CCN(CC(=O)O)CC(=O)O)CC(=O)O [EDTA]
eosinophil degranulation (EDN release) induced by Alternaria extract (eosinophils): inhibited

B1: papain: cysteine protease (protein, UniProt P00784 134-345, looked up)
Papain: IPEYVDWRQKGAVTPVKNQGSCGSCWAFSAVVTIEGIIKIRTGNLNEYSEQELLDCDRRSYGCNGGYPWSALQLVAQYGIHYRNTYPYEGVQRYCRSREKGPYAAKTDGVRQVQPYNEGALLYSIANQPVSVVLEAAGKDFQLYRGGIFVGPCGNKVDHAVAAVGYGPNYILIKNSWGTGWGENGYIRIKRGTGNSYGVCGLYTSSFYPVKN
activation of human eosinophils by proteases (human eosinophils): activated

B2: Der f1: natural mite allergen protease (protein, UniProt P16311 99-321, looked up)
Peptidase 1: TSACRINSVNVPSELDLRSLRTVTPIRMQGGCGSCWAFSGVAATESAYLAYRNTSLDLSEQELVDCASQHGCHGDTIPRGIEYIQQNGVVEERSYPYVAREQRCRRPNSQHYGISNYCQIYPPDVKQIREALTQTHTAIAVIIGIKDLRAFQHYDGRTIIQHDNGYQPNYHAVNIVGYGSTQGDDYWIVRNSWDTTWGDSGYGYFQAGNNLMMIEQYPYVVIM
activation of human eosinophils by proteases (human eosinophils): activated

B3: SEQ ID NO:2: polypeptide of SEQ ID NO:2, Alternaria alternata endoxylanase, recombinantly produced in E. coli (protein, listed as Alternaria brassicicola)
chain: MHFRGSSIYFGIVALSSTSAVLGAVAPYGQCGGNGFQGETECAQGWSCVKSNDWYSQCINGGGNAPAPPAATGVAPAPVIPSAAPVPSMNASEPVAAPVAVAQPAATGGANGSAPDVAGTGANGAKCSLDAAFKSHGKKYIGVATDQGALSKGKNKEIIVANFGQVTPENSMKWDATEGTEGKFTLDGANALVSFATENKKLVRGHTTVWHSQLPTWVSSITDKTKLEEVMVAHIKKLMSTYAGKVYAWDVVNEIFNEDGSFRSSVFYNVLGENFVATAFATAKAADPEAKLYINDYNLDSPSYAKTKAMASNVKKWVAAGVPIDGIGSQSHLSGSWPISDYPAALKLLCESASECAMTELDIKGGAAADYKTAVTACLDVENCVGVTVWGVSDTDSWIGAAATPLLFDGSFQAKESYNGLCSALA
eosinophil degranulation (EDN release) (human eosinophils; eosinophils incubated with stimulus): stimulated eosinophil degranulation

B4: Calpastatin (protein, UniProt P20810 1-708, looked up)
Calpastatin: MNPTETKAIPVSQQMEGPHLPNKKKHKKQAVKTEPEKKSQSTKLSVVHEKKSQEGKPKEHTEPKSLPKQASDTGSNDAHNKKAVSRSAEQQPSEKSTEPKTKPQDMISAGGESVAGITAISGKPGDKKKEKKSLTPAVPVESKPDKPSGKSGMDAALDDLIDTLGGPEETEEENTTYTGPEVSDPMSSTYIEELGKREVTIPPKYRELLAKKEGITGPPADSSKPIGPDDAIDALSSDFTCGSPTAAGKKTEKEESTEVLKAQSAGTVRSAAPPQEKKRKVEKDTMSDQALEALSASLGTRQAEPELDLRSIKEVDEAKAKEEKLEKCGEDDETIPSEYRLKPATDKDGKPLLPEPEEKPKPRSESELIDELSEDFDRSECKEKPSKPTEKTEESKAAAPAPVSEAVCRTSMCSIQSAPPEPATLKGTVPDDAVEALADSLGKKEADPEDGKPVMDKVKEKAKEEDREKLGEKEETIPPDYRLEEVKDKDGKPLLPKESKEQLPPMSEDFLLDALSEDFSGPQNASSLKFEDAKLAAAISEVVSQTPASTTQAGAPPRDTSQSDKDLDDALDKLSDSLGQRQPDPDENKPMEDKVKEKAKAEHRDKLGERDDTIPPEYRHLLDDNGQDKPVKPPTKKSEDSKKPADDQDPIDALSGDLDSCPSTTETSQNTAKDKCKKAASSSKAPKNGGKAKDSAKTTEETSKPKDD
eosinophil degranulation (EDN release) induced by Alternaria extract (eosinophils; 3 hours at 37° C.): did not inhibit
